The source made the active and inactive calls. No cut-off for these calls is given here.
Experiments:
[1] = test system: HOS-TE85; test: In vivo inhibition of PDGFRbeta-mediated downstream signalling in human MNNG/HOS cells xenografted in BALB/c nude mouse assessed as phosphorylation of PDGFR in tumor tissue at 15 to 30 mg/kg/day, po for 14 days; format: functional, organism-based; conditions: dose lower […], dose upper 30.0 mg/kg/day, time 14.0 day
[2] = test system: MG-63; test: Antimigratory activity against human MG-63 cells assessed as reduction in cell spreading area upto 48 hrs by DAPI staining based immunofluorescence microscopic analysis; format: functional; conditions: dose 0.1-0.4 µM, DDE = dose-dependent effect
[3] = test system: HOS-TE85; test: Induction of apoptosis in human MNNG/HOS cells at 0.4 uM after 48 hrs by Annexin V/PI staining based flow cytometric analysis; format: functional, cell-based
[4] = test system: HOS-TE85; test: Antiinvasive activity against human MNNG/HOS cells assessed as reduction in cell spreading area upto 48 hrs by DAPI staining based immunofluorescence microscopic analysis; format: functional; conditions: dose 0.1-0.4 µM, DDE = dose-dependent effect
[5] = biological target: T1, Platelet-derived growth factor receptor beta (Homo sapiens, UniProt P09619); test: Inhibition of PDGFRbeta phosphorylation in human MNNG/HOS cells incubated for 48 hrs by Western blot analysis; format: cell-based
T1 sequence (P09619 whole entry): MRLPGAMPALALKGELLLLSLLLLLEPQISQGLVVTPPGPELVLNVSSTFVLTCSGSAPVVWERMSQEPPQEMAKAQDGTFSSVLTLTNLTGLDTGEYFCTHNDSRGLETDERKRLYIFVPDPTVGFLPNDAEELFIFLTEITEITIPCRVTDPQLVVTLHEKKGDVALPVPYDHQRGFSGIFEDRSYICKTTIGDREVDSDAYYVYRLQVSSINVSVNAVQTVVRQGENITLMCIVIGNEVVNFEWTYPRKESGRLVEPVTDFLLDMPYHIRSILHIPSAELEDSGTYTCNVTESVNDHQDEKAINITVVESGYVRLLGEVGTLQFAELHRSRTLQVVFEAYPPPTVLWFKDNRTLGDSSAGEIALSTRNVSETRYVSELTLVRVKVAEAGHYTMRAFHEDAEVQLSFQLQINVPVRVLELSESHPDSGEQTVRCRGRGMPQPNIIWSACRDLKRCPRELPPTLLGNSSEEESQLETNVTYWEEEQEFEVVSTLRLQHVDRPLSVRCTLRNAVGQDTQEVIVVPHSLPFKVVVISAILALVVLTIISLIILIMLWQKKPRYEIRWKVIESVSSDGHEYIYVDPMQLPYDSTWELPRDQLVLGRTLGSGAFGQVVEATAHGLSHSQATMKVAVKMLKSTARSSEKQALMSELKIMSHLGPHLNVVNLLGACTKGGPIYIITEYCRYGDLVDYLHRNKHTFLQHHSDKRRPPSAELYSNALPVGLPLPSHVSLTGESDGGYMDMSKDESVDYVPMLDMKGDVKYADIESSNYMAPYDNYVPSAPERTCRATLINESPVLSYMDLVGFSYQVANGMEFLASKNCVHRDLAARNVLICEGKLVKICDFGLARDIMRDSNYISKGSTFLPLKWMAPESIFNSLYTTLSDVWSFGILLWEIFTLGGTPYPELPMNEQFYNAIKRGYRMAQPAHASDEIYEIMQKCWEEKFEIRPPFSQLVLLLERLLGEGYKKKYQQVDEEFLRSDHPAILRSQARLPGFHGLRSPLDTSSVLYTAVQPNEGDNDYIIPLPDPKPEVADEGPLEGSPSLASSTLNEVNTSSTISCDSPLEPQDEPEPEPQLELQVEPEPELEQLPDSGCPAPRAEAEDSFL

[6] = test system: MG-63; test: Inhibition of cell migration in human MG-63 cells assessed as reduction of cell mobility after 48 hrs by scratch-wound healing assay; format: functional, cell-based; conditions: dose 0.1-0.4 µM, DDE = dose-dependent effect
[7] = biological target: T1, Platelet-derived growth factor receptor beta; test: Inhibition of PDGFRbeta-mediated downstream signalling in human MNNG/HOS cells assessed as suppression of STAT3 phosphorylation at 0.1 to 0.4 uM measured after 48 hrs by western blot analysis; format: cell-based; conditions: dose 0.1-0.4 µM
[8] = biological target: Platelet-derived growth factor receptor alpha (Homo sapiens, UniProt P16234); test: Binding affinity to PDGFRalpha (unknown origin)
Chain of Platelet-derived growth factor receptor alpha (P16234 whole entry): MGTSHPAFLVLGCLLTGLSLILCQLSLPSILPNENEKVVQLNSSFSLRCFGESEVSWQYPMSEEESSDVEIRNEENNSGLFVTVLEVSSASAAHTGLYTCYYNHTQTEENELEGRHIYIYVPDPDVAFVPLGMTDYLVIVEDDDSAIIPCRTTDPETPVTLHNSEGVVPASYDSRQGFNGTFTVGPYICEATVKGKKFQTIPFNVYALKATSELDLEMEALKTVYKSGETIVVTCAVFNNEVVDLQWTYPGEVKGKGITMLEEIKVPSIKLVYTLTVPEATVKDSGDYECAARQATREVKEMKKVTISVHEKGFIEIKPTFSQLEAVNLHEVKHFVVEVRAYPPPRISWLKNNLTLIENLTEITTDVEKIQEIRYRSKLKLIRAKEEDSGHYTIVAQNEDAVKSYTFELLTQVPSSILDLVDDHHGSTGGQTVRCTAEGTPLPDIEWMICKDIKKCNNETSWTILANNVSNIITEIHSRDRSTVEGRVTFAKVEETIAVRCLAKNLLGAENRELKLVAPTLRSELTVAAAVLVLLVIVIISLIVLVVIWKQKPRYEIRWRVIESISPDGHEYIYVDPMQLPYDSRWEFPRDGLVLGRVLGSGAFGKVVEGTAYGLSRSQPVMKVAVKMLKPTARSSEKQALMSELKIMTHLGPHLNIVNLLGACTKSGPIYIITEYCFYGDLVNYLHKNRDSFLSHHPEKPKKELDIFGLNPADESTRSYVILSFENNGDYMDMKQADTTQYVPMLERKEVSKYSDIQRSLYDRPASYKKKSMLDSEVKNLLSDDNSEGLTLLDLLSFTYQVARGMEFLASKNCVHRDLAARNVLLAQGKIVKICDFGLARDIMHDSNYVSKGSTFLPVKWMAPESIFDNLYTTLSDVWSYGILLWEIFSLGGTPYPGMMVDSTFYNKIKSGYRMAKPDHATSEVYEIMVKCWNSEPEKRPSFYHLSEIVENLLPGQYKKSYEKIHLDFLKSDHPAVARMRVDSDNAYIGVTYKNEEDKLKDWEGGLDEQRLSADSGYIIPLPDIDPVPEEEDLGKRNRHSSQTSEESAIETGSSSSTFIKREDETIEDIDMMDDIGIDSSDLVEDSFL

[9] = test system: MG-63; test: Antiinvasive activity against human MG-63 cells assessed as expression of FAK by measuring fluorescence at 0.1 to 0.4 uM upto 48 hrs by DAPI staining based immunofluorescence microscopic analysis; format: functional, cell-based; conditions: dose 0.1-0.4 µM
[10] = biological target: Focal adhesion kinase 1 (Homo sapiens) (UniProt Q05397); test: Inhibition of FAK phosphorylation in human MNNG/HOS cells incubated for 48 hrs by Western blot analysis; format: cell-based; conditions: dose 0.1-0.4 µM, DDE = dose-dependent effect
Chain of Focal adhesion kinase 1 (Homo sapiens) (Q05397 2-1052 limits assumed): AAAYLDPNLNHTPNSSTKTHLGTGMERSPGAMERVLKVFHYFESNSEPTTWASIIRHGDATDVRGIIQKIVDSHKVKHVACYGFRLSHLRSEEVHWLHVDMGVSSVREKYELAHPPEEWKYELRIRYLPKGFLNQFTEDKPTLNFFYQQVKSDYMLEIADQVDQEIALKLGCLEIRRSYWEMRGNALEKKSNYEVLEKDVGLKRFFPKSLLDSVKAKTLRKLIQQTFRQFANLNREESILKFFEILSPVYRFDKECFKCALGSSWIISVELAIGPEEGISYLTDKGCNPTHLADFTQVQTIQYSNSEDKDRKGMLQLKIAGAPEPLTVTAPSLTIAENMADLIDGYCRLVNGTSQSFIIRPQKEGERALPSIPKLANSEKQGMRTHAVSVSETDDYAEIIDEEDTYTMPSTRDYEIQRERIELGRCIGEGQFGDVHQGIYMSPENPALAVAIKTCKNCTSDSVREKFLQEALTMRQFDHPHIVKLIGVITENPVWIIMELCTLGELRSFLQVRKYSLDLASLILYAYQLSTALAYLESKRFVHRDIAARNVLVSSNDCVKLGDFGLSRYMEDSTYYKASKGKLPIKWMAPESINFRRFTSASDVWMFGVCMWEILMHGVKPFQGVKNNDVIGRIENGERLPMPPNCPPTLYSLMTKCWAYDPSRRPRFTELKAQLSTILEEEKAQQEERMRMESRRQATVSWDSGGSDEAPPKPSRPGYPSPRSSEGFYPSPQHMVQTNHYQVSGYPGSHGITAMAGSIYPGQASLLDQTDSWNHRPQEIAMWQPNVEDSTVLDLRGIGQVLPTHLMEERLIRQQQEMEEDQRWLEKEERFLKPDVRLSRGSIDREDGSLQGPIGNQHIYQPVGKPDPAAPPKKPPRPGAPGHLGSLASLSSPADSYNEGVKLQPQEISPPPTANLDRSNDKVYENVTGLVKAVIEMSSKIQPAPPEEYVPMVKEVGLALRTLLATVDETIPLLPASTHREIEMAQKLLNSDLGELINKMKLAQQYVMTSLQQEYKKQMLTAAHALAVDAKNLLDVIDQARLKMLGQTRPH

[11] = biological target: T1, Platelet-derived growth factor receptor beta; test: Inhibition of PDGFRbeta in PDGF AA/BB stimulated human MNNG/HOS cells assessed as reduction in fluorescence intensity measured after 48 hrs by DAPI staining based immunofluorescence analysis; format: cell-based; conditions: dose 0.1-0.4 µM, DDE = dose-dependent effect
[12] = biological target: T1, Platelet-derived growth factor receptor beta; test: Inhibition of PDGFRbeta in PDGF AA/BB stimulated human MG-63 cells assessed as reduction in fluorescence intensity measured after 48 hrs by DAPI staining based immunofluorescence analysis; format: cell-based; conditions: dose 0.1-0.4 µM, DDE = dose-dependent effect
[13] = test system: HOS-TE85; test: Inhibition of cell adhesion in human MNNG/HOS cells at 0.1 to 0.4 uM measured after 48 hrs by crystal violet staining based analysis; format: functional; conditions: dose 0.1-0.4 µM
[14] = test system: MG-63; test: Antimigratory activity against human MG-63 cells assessed as expression of FAK by measuring fluorescence at 0.1 to 0.4 uM upto 48 hrs by DAPI staining based immunofluorescence microscopic analysis; format: functional, cell-based; conditions: dose 0.1-0.4 µM
[15] = test system: HOS-TE85; test: Inhibition of cell migration in human MNNG/HOS cells assessed as reduction of cell mobility after 48 hrs by scratch-wound healing assay; format: functional, cell-based; conditions: dose 0.1-0.4 µM, DDE = dose-dependent effect
[16] = test system: HOS-TE85; test: In vivo inhibition of PDGFRbeta-mediated downstream signalling in human MNNG/HOS cells xenografted in BALB/c nude mouse assessed as phosphorylation of STAT3 in tumor tissue at 15 to 30 mg/kg/day, po for 14 days; format: functional, organism-based; conditions: dose lower […], dose upper 30.0 mg/kg/day, time 14.0 day

inhibition [5]: Active
inhibition [7]: Active
Activity [8]: Active
inhibition [10]: Dde
inhibition [11]: Dde
inhibition [12]: Dde
Structure (SMILES): CCN1CCN(c2ccc(Nc3ncc(C)c(Nc4ccc5cn[nH]c5c4)n3)cc2OC)CC1
inhibition [1]: Active
Activity [2]: Dde
Activity [3]: Active
Activity [4]: Dde
inhibition [6]: Dde
Activity [9]: Active
inhibition [13]: Active
Activity [14]: Active
inhibition [15]: Dde
inhibition [16]: Active

— ChEMBL document CHEMBL5154776, “Discovery of Potent and Orally Bioavailable Platelet-Derived Growth Factor Receptor (PDGFR) Inhibitors for the Treatment of Osteosarcoma” (J Med Chem, 2022)
